In US20240336565A1, “SOLID FORMS OF OSANETANT” (Acer Therapeutics, Inc., priority 2021, published 2024):
“Also recorded” adds a separate entry of the source.

What was measured:
[1] = Disproportionation study (stirring in water, XRPD, pH of liquor); type: physicochemical; conditions: 10 mg in 1 mL of water, 24 h at 25° C.
Method: After 24 h total, a white slurry was observed and was isolated by centrifugation. The solids were analyzed by XRPD. The pH of the filtered liquor was measured at 5.63. […] After 24 h total, a white slurry was observed and was isolated by centrifugation. The solids were analyzed by XRPD. The pH of the filtered liquor was measured (pH=5.09).

[2] = Comparative studies: 7-day stability; type: physicochemical; conditions: for impurities on 7-day stability: 80° C.; for solid form on 7-day stability: 7 days, elevated temperature where stated
Method: Osanetant p-toluenesulfonic acid Form 1, osanetant benzene sulfonic acid Form 3, osanetant naphthalene-2-sulfonic acid Form 3, and osanetant phosphoric acid Form 7 were compared. Osanetant phosphoric acid Form 7 was obtained when preparation of osanetant phosphoric acid Form 4 was repeated and found to be not reproducible, and Form 7 was determined to be a mixture of hydrates).
Thus, osanetant benzene sulfonic acid salt Form 1 and osanetant p-toluene sulfonic acid salt Form 1 were identified as advantageous salts.

[3] = Salt screen: XRPD of isolated solids after drying at 40° C. and at 40° C./75% RH; type: physicochemical; conditions: for XRPD after drying at 40° C./75% RH: after 40° C. drying, dried at 40° C./75% RH for about 24 h, label = form after 40° C. drying; for XRPD after drying at 40° C.: isolated solids dried at 40° C. for about 24 h, label = wet form
Method: To approximately 20 mg of amorphous lyophilized osanetant was added 0.3 mL of solvent for liquid counterion experiments. 0.2 mL of solvent was employed for solid counterion experiments. […] To the stirring mixture was then added 1.05 mol eq. of the appropriate counterion. Where solid counterions were used, the vial which contained the counterion was washed in to the osanetant containing vial with 0.1 mL of the appropriate solvent. Additional solvent was added where necessary. The experiments were thermally cycled as follows: heated from 25 to 40° C. at a rate of 0.1° C./min; 1 h at 40° C.; Cool to 5° C. at a rate of 0.1° C.; 1 h at 5° C.; 40° C. at a rate of 0.1° C./min; […] The crystallization experiments were thermally cycled overnight, then slurries were isolated by centrifugation. XRPD analysis was carried out on any isolated solids or gums. The XRPD plate, and the isolated solids, were then dried at 40° C. for about 24 h, and XRPD analysis was repeated. The XRPD plate was then dried at 40° C./75% RH for about 24 h and XRPD analysis was again repeated. All other samples were allowed to evaporated at ambient temperature and pressure.

[4] = Thermodynamic solubility in water and pH buffers
[5] = Hydration study (stirring in ethanol: water mixtures, XRPD); type: physicochemical
Method: (§1) 20 mg of osanetant p-toluenesulfonic acid Form 1 was stirred in the appropriate ethanol: water mixtures for 24 h at 25° C. Where clear solutions were observed after 1 h at 25° C., 0.5 mL of liquor was removed, and additional solid was added until a slurry was maintained. After 24 h total, the experiments were isolated by centrifugation, and the solids were analyzed by XRPD.
as §1, with “Osanetant benzenesulfonic acid” for “20 mg of osanetant p-toluenesulfonic acid”, “Form 3 (20 mg)” for “Form 1”, “was removed from the Aw 0.257 sample,” for “was removed,”

[6] = Solid form stability observations (scale up / polymorph work: drying, ambient conditions, aqueous media); type: physicochemical
Method: Two anhydrous forms of the osanetant p-toluenesulfonic acid were synthesized. […] Form 6, described below, was a stable anhydrous form, but hydrated in water and aqueous solvent mixtures.
Advantageously, Form 1 (hydrate) and Form 6 (anhydrous) were stable on drying. Form 1 re-hydrated at room temperature and pressure after KF analysis, when it was heated in an oven to remove the water.
The experiment was cooled to 5° C. at a rate of 0.1° C./min and stirred at 5° C. for 18 h. The slurry was isolated be Buchner filtration: 42.5 mm Ø grade 1 Whatman filter paper; fast Filtration (<30 s); the cake was washed with 1 mL of ethyl acetate; the isolated solids were dried at 40° C. under vacuum for 72 h. […]

[7] = Hygroscopicity / dynamic vapor sorption (DVS); type: physicochemical
Method: The osanetant p-toluenesulfonic acid Form 1 solids consisted of aggregated crystals with an undefined morphology. Select peaks which can be used to characterize osanetant p-toluenesulfonic acid Form 1 include one or more of 11.4°2θ±0.2°2θ, 18.0°2θ±0.2°2θ, 19.0°2θ±0.2°2θ, 19.3°2θ±0.2°2θ, 19.8°2θ±0.2°2θ, or 21.1°2θ±0.2°2θ. In some embodiments, osanetant p-toluenesulfonic acid Form 1 is a monohydrate.

Compound | XRPD form / disproportionation after stirring in water [1] | pH of the filtered liquor [1] | solid chemical stability ([2]; 7-day stability results, overall) | impurities on 7-day stability [2] | solid form on 7-day stability [2] | XRPD after drying at 40° C./75% RH [3] | XRPD after drying at 40° C. [3] | solid form after thermodynamic solubility in pH buffers [4] | thermodynamic solubility in pH buffers / buffered systems [4] | XRPD form after stirring in ethanol: water mixtures ([5]; 24 h at 25° C., Aw 0.507 and above / high water activity) | XRPD ([5]; slurry in ethanol:water 63.6:36.4 % v/v, calc Aw 0.745, 24 h at 25° C.) | XRPD ([5]; slurry in ethanol:water 92.9:7.1 % v/v, calc Aw 0.507, 24 h at 25° C.) | XRPD ([5]; slurry in ethanol:water 98.4:1.6 % v/v, calc Aw 0.257, 24 h at 25° C.) | hydration / form conversion in water and aqueous solvent mixtures [6] | form on drying ([6]; drying (40° C. under vacuum where stated)) | hygroscopicity / water loss on DVS analysis [7]
CC(=O)N(C)C1(c2ccccc2)CCN(CCC[C@]2(c3ccc(Cl)c(Cl)c3)CCCN(C(=O)c3ccccc3)C2)CC1.O=S(=O)(O)c1ccccc1 [osanetant benzenesulfonic acid Form 3, (R)-N-(1-(3-(1-benzoyl-3-(3,4-dichlorophenyl)piperidin-3-yl)propyl)-4-phenylpiperidin-4-yl)-N-methylacetamide benzenesulfonic acid] | converted to osanetant benzenesulfonic acid Form 1 | 5.09 | good | slight increase in impurities; also recorded: lowest impurity increase | retained form | retained; also recorded: stable; also recorded: Form 3 | Form 3 | converted to Form 1 | low | conversion to osanetant benzenesulfonic acid Form 1; also recorded: converted to osanetant benzene sulfonic acid Form 1 | Form 1 | Form 1 | Form 3 | converted to osanetant benzene sulfonic acid salt form Form 1 | no change | 
(R)-N-(1-(3-(1-benzoyl-3-(3,4-dichlorophenyl)piperidin-3-yl)propyl)-4-phenylpiperidin-4-yl)-N-methylacetamide naphthalene-2-sulfonic acid [osanetant naphthalene-2-sulfonic acid Form 3] |  |  |  | increase in impurities | stable solid form | retained; also recorded: stable; also recorded: Form 3 | retained; also recorded: Form 3 |  |  |  |  |  |  |  |  | more hygroscopic
